# Assay results published in PMC8379219 (Nature Communications, 2021).
# “And” between values parts separate entries of the source, which are not always exact repeats. Equal entries are not always repeated.
# Tests used:
# SERT WT [1] = target: T1, SERT WT (Homo sapiens, UniProt P31645); assay: [3H]IMI dissociation rate assay (allosteric potency), COS-7 membranes;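 as to all read-outs here: radioligand pre-bound 30 min at room temperature to equilibrium, then dissociation followed over 5–70 min, ended by filtration through GF/B filters, at least three independent experiments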; format: binding; set-up: expressed in transfected cells; host or cells: COS-7; details: for VLZ Allosteric Potency SERT WT, [3H]IMI dissociation (Fig. 2C): ctrl = 1, replicates
# SERT WT [2] = target: T1, SERT WT; assay: [3H]5-HT saturation uptake with increasing VLZ concentrations, COS-7 cells;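 as to all read-outs here: transfected cells assayed 2 days post-transfection, 3 min uptake period, accumulated radioactivity counted in cell lysates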; format: cell-based; set-up: expressed in transfected cells; host or cells: COS-7; [3H]5-HT uptake (Fig. 2A [3H]5-HT Vmax):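 percent of the 5-HT Vmax measured without VLZ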; details: for [3H]5-HT uptake (Fig. 2A [3H]5-HT Vmax): replicates
# T1 sequence (P31645 whole entry): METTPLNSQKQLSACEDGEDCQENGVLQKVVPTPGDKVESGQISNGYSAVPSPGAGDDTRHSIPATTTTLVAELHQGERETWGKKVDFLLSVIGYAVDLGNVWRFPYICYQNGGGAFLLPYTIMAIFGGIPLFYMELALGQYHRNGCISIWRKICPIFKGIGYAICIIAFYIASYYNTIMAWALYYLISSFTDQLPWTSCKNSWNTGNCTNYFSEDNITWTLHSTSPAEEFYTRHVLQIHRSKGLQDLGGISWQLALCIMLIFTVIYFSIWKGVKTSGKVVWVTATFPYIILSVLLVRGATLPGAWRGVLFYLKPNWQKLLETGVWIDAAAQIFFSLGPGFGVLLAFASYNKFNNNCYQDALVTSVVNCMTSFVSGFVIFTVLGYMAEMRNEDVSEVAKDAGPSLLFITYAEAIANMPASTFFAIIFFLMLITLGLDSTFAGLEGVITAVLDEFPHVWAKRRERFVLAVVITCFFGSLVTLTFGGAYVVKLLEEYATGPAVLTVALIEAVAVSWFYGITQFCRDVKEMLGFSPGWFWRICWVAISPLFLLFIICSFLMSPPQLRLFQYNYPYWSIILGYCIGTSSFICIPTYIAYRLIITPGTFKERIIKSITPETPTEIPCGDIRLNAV
smiles,measurement,setting,value
"N#Cc1ccc2[nH]cc(CCCCN3CCN(c4ccc5oc(C(N)=O)cc5c4)CC3)c2c1 [VLZ, Vilazodone]",[3H]IMI dissociation (Fig. 2B),"SERT WT [1]; 1.6 nM, time 30 min",88.3693
same,[3H]IMI dissociation (Fig. 2B),"SERT WT [1]; 1.6 nM, time 50 min",82.8483
same,[3H]IMI dissociation (Fig. 2B),"SERT WT [1]; 1.6 nM, time 70 min",74.8875
same,[3H]IMI dissociation (Fig. 2B),"SERT WT [1]; 5.0 nM, time 5 min",97.5709
same,[3H]IMI dissociation (Fig. 2B),"SERT WT [1]; 5.0 nM, time 10 min",97.4425
same,[3H]IMI dissociation (Fig. 2B),"SERT WT [1]; 5.0 nM, time 20 min",93.3593
same,[3H]IMI dissociation (Fig. 2B),"SERT WT [1]; 5.0 nM, time 30 min",90.4506
same,[3H]IMI dissociation (Fig. 2B),"SERT WT [1]; 5.0 nM, time 50 min",84.3631
same,[3H]IMI dissociation (Fig. 2B),"SERT WT [1]; 5.0 nM, time 70 min",76.3943
same,[3H]IMI dissociation (Fig. 2B),"SERT WT [1]; 14 nM, time 5 min",98.3663
same,[3H]IMI dissociation (Fig. 2B),"SERT WT [1]; 14 nM, time 10 min",97.4617
same,[3H]IMI dissociation (Fig. 2B),"SERT WT [1]; 14 nM, time 15 min",95.8874
same,[3H]IMI dissociation (Fig. 2B),"SERT WT [1]; 14 nM, time 20 min",96.0081
same,[3H]IMI dissociation (Fig. 2B),"SERT WT [1]; 14 nM, time 30 min",92.2894
same,[3H]IMI dissociation (Fig. 2B),"SERT WT [1]; 14 nM, time 50 min",89.4282
same,[3H]IMI dissociation (Fig. 2B),"SERT WT [1]; 14 nM, time 70 min",81.9514
same,[3H]IMI dissociation (Fig. 2B),"SERT WT [1]; 41 nM, time 5 min",97.9849
same,[3H]IMI dissociation (Fig. 2B),"SERT WT [1]; 41 nM, time 10 min",98.4954
same,[3H]IMI dissociation (Fig. 2B),"SERT WT [1]; 41 nM, time 15 min",97.2116
same,[3H]IMI dissociation (Fig. 2B),"SERT WT [1]; 41 nM, time 20 min",97.5521
same,[3H]IMI dissociation (Fig. 2B),"SERT WT [1]; 41 nM, time 30 min",96.6684
same,[3H]IMI dissociation (Fig. 2B),"SERT WT [1]; 41 nM, time 50 min",94.4925
same,[3H]IMI dissociation (Fig. 2B),"SERT WT [1]; 41 nM, time 70 min",87.7012
same,"VLZ Allosteric Potency SERT WT, [3H]IMI dissociation (Fig. 2C)",SERT WT [1]; Log[VLZ] (M) -4,0
same,"VLZ Allosteric Potency SERT WT, [3H]IMI dissociation (Fig. 2C)",SERT WT [1]; Log[VLZ] (M) -5.9101,0.1027 and 0.08972 and 0.1662 and 0.1172 and 0.01147
same,"VLZ Allosteric Potency SERT WT, [3H]IMI dissociation (Fig. 2C)",SERT WT [1]; Log[VLZ] (M) -6.38561,0.0801 and 0.09017 and 0.06116 and 0.2108 and 0.1226 and 0.07783 and 0.1748 and 0.1023
same,"VLZ Allosteric Potency SERT WT, [3H]IMI dissociation (Fig. 2C)",SERT WT [1]; Log[VLZ] (M) -6.86273,0.1665 and 0.2014 and 0.09755 and 0.4073 and 0.1925 and 0.0796 and 0.2088 and 0.1328
same,"VLZ Allosteric Potency SERT WT, [3H]IMI dissociation (Fig. 2C)",SERT WT [1]; Log[VLZ] (M) -7.33985,0.3329 and 0.2727 and 0.2322 and 0.5054 and 0.3314 and 0.3281 and 0.2598 and 0.3035 and 0.2526
same,"VLZ Allosteric Potency SERT WT, [3H]IMI dissociation (Fig. 2C)",SERT WT [1]; Log[VLZ] (M) -7.81697,0.6247 and 0.4843 and 0.4623 and 0.5542 and 0.4673 and 0.4013 and 0.468 and 0.4244
same,"VLZ Allosteric Potency SERT WT, [3H]IMI dissociation (Fig. 2C)",SERT WT [1]; Log[VLZ] (M) -8.29409,0.894 and 0.6671 and 0.6226 and 0.8075 and 0.7294 and 0.5156 and 0.7279 and 0.5418
same,"VLZ Allosteric Potency SERT WT, [3H]IMI dissociation (Fig. 2C)",SERT WT [1]; Log[VLZ] (M) -8.77121,0.9289 and 0.7744 and 0.7519 and 0.85 and 0.8487 and 0.773 and 0.7182 and 0.7591
same,[3H]5-HT uptake (Fig. 2A [3H]5-HT Vmax),"SERT WT [2]; 1.0 nM VLZ, 5-HT 1000 nM",49.0825 and 65.883 and 64.0163
same,[3H]5-HT uptake (Fig. 2A [3H]5-HT Vmax),"SERT WT [2]; 1.0 nM VLZ, 5-HT 2000 nM",61.0408 and 86.9627 and 62.7549
same,[3H]5-HT uptake (Fig. 2A [3H]5-HT Vmax),"SERT WT [2]; 1.0 nM VLZ, 5-HT 3000 nM",66.441 and 97.8152 and 78.0502
same,[3H]5-HT uptake (Fig. 2A [3H]5-HT Vmax),"SERT WT [2]; 3.0 nM VLZ, 5-HT 1000 nM",33.7847 and 41.1475 and 28.2118 and 48.6535
same,[3H]5-HT uptake (Fig. 2A [3H]5-HT Vmax),"SERT WT [2]; 3.0 nM VLZ, 5-HT 2000 nM",43.7743 and 51.4964 and 36.278 and 58.2653
same,[3H]5-HT uptake (Fig. 2A [3H]5-HT Vmax),"SERT WT [2]; 3.0 nM VLZ, 5-HT 3000 nM",47.6029 and 61.8621 and 42.6502 and 66.7813
same,[3H]5-HT uptake (Fig. 2A [3H]5-HT Vmax),"SERT WT [2]; 3.8 nM VLZ, 5-HT 1000 nM",22.8758 and 41.0675 and 31.8704 and 40.9164 and 22.5758 and 39.1234
same,[3H]5-HT uptake (Fig. 2A [3H]5-HT Vmax),"SERT WT [2]; 3.8 nM VLZ, 5-HT 2000 nM",38.6315 and 55.6912 and 34.4535 and 55.6242 and 30.4203 and 47.6358
same,[3H]5-HT uptake (Fig. 2A [3H]5-HT Vmax),"SERT WT [2]; 3.8 nM VLZ, 5-HT 3000 nM",63.6765 and 45.9269 and 61.6646 and 33.1434 and 58.1985
same,[3H]5-HT uptake (Fig. 2A [3H]5-HT Vmax),"SERT WT [2]; 6.0 nM VLZ, 5-HT 1000 nM",12.5099 and 7.037 and 21.7589
same,[3H]5-HT uptake (Fig. 2A [3H]5-HT Vmax),"SERT WT [2]; 6.0 nM VLZ, 5-HT 2000 nM",13.9352 and 18.4437
same,[3H]5-HT uptake (Fig. 2A [3H]5-HT Vmax),"SERT WT [2]; 6.0 nM VLZ, 5-HT 3000 nM",16.6938 and 13.3777
same,[3H]5-HT uptake (Fig. 2A [3H]5-HT Vmax),"SERT WT [2]; 7.5 nM VLZ, 5-HT 1000 nM",14.9918 and 20.7791 and 1.755 and 5.881 and 9.304
same,[3H]5-HT uptake (Fig. 2A [3H]5-HT Vmax),"SERT WT [2]; 7.5 nM VLZ, 5-HT 2000 nM",20.8007 and 29.8638 and 2.631 and 9.704
same,[3H]5-HT uptake (Fig. 2A [3H]5-HT Vmax),"SERT WT [2]; 7.5 nM VLZ, 5-HT 3000 nM",31.591 and 10.2272 and 13.2803
same,[3H]5-HT uptake (Fig. 2A [3H]5-HT Vmax),"SERT WT [2]; 10 nM VLZ, 5-HT 1000 nM",11.1656 and 2.348 and 1.555 and 4.995
same,[3H]5-HT uptake (Fig. 2A [3H]5-HT Vmax),"SERT WT [2]; 10 nM VLZ, 5-HT 2000 nM",17.8898 and 3.041 and 8.84 and 7.029 and 9.965
same,[3H]5-HT uptake (Fig. 2A [3H]5-HT Vmax),"SERT WT [2]; 10 nM VLZ, 5-HT 3000 nM",19.1566 and 3.978 and 3.024
same,[3H]5-HT uptake (Fig. 2A [3H]5-HT Vmax),"SERT WT [2]; 15 nM VLZ, 5-HT 1000 nM",1.871 and 1.697 and 1.083 and 0.6379 and 0.8401 and 1.916
same,[3H]5-HT uptake (Fig. 2A [3H]5-HT Vmax),"SERT WT [2]; 15 nM VLZ, 5-HT 2000 nM",3.689 and 3.04 and 2.083 and 1.212 and 1.597 and 2.763
same,Mode of inhibition of [3H]5-HT transport,SERT WT [2]; VLZ 0–15 nM,non-competitive
same,5-HT VMAX (in % of no VLZ),SERT WT [2]; VLZ 1 nM,93 ± 13%
same,5-HT VMAX (in % of no VLZ),SERT WT [2]; VLZ 3.0 nM,66 ± 10%
same,5-HT VMAX (in % of no VLZ),SERT WT [2]; VLZ 3.8 nM,72 ± 17%
same,5-HT VMAX (in % of no VLZ),SERT WT [2]; VLZ 6.0 nM,21 ± 6%
same,5-HT VMAX (in % of no VLZ),SERT WT [2]; VLZ 7.5 nM,18 ± 8%
same,5-HT VMAX (in % of no VLZ),SERT WT [2]; VLZ 10 nM,11 ± 5%
same,5-HT VMAX (in % of no VLZ),SERT WT [2]; VLZ 15 nM,3.4 ± 1.2%
same,5-HT VMAX (in % of no VLZ),SERT WT [2]; VLZ […],98 ± 10%
